Here are results for one compound from patent US12280043B2, “Sustained-release anesthetic compositions and methods of preparation thereof” (TLC Biopharmaceuticals, Inc., priority 2017, dated 2025).

Series [1] can be described thus: Pharmacokinetic study after single SC injection. Type of series: in vivo, Sprague-Dawley rats.
Procedure: Jugular vein cannulated (JVC) female Sprague-Dawley rats were used for a pharmacokinetic (PK) study. The rats were housed in a holding room that operates on a 12-hr light/12-hr dark circadian cycle and that provides free access to water and food. […] Blood samples were collected at 15 min, 1 hour, 2 hours, 4 hours, 8 hours, 24 hours, 48 hours, and 72 hours post-injection. Plasma samples were obtained by centrifugation and were kept frozen at −80° C. until analysis. PK data obtained from the samples were analyzed using a noncompartmental model (WinNonlin® software).
For series [2], the system named is paw incision mouse model. In words: Anesthetic effect in a paw incision mouse model (von Frey mechanical threshold). Format: in vivo, C57/BL6 mice. As to conditions: 0.18 mg ropivacaine per incision. On the procedure:
Wild type male C57/BL6 mice (8-week-old, Envigo) were used for evaluating the anesthetic efficacy after paw incision as described in Anesthesiology, 2003 October; 99 (4): 1023-7 and J. Neurosci Methods. 1994 July; 53 (1): 55-63. […] Baseline (T=−2 hours) mechanical (von Frey) thresholds of 32 mice were taken prior to surgery; baseline thresholds were measured on the mouse's left hind paw. All 32 mice received a plantar incision (5 mm long and […]) on their left hind paw. Two-hours post-surgery (T=0 hour), the mechanical threshold of each mouse was reassessed and the presence of mechanical allodynia in each mouse was confirmed. Thirty-two mice were randomized into 4 groups (8 mice per group). […] The 50% paw withdrawal threshold of each mouse was obtained using the up-down method at baseline time point (−2), and the designated time points (0, 1, 2, 3, 4, 5, 6, 8, and 24 hours) after SC injection treatment. […] The average 50% withdrawal threshold for each treatment group was graphed; data presented as a withdrawal threshold (g) were plotted against time (FIG. 2A). To account for variability among the baseline mechanical sensitivities of individual mice, each mouse's 50% paw withdrawal thresholds after surgery and treatment were normalized to its own baseline 50% withdrawal threshold (T=−2 hours). […]

A short description of series [3]: pKa and ionisation state stated in text. Format: physicochemical. As to conditions: at pH 6.0, calculation from pKa.
[4] abbreviates: female, Sprague-Dawley, rat, plasma, sc, 20 mg/kg.

What is called Cmax is the peak of the concentration-time curve. As usually defined, the half-life is how long it takes for the measured level to halve. High values mean slow loss, low ones fast loss. In series [1] (setting [4]), `CCCN1CCCC[C@H]1C(=O)Nc1c(C)cccc1C` [Ropivacaine, ropivacaine] gave a Cmax of 802 ± 208 ng/mL and a half-life of 3.1 ± 1.4 h. Besides, in series [1] (female, Sprague-Dawley, rat, plasma, sc, 20 mg/kg, read-out: AUC0-4), the AUC(0-t) amounted to 4040 ± 632 ng·h/mL. The “time until which ropivacaine could be detected in the plasma” value in series [1] (rats, single SC, same dosage 20.0 mg/kg) was no more than 24 h. Also, the “analgesia compared to vehicle group” value in series [2] (SC) is recorded as “some degree of analgesia”. Besides, the “withdrawal threshold at the first time point” value in series [2] (T=1 hour after SC injection, increased from 0.04 g) came to 0.22 g. Moreover, the “theoretically uncharged ropivacaine, of available ropivacaine” value in series [3] is on record as 0.8%.
